For this experiment, the system named is bacteria. Nature of the experiment: Binding of targeting peptides to microorganisms (Table 3). Conditions: microorganism bound by the targeting peptide; binding in aqueous buffers chosen by peptide solubility, preferably 1x PBS.

This is an account of results in patent US9597407B2, “Targeted antimicrobial moieties” (C3 Jian, Inc., priority 2009, dated 2017).

“Also recorded” adds a separate entry of the source.

As for “PF-165 (GPVSVVASLRRGTTVQRHSQNNHNKGKP; Peptide with targeting and/or antimicrobial activity)”, the “Target(s)” value was “MRSA and C. jejuni”.
The entry for “PF-166 (SKAVSRKRSI; Peptide with targeting and/or antimicrobial activity)” is “E. coli; also recorded: C. jeikeium”; for “PF-169 (APGSAADSPRSRADD; Peptide with targeting and/or antimicrobial activity)” it is “S. epidermidis; also recorded: E. coli; also recorded: C. albicans; also recorded: E. faecalis; also recorded: C. jeikeium”; for “PF-172 (LTGVRRPWRAPWAGTSGWALR; Peptide with targeting and/or antimicrobial activity)” it is “S. epidermidis and M. luteus and E. coli and P. aeruginosa and MRSA and E. faecalis and C. jejuni”.
Consider “PF-174 (RGGDSPARRRPGLAGPGGPG; Peptide with targeting and/or antimicrobial activity)”, for which the “Target(s)” value was “S. epidermidis; also recorded: P. aeruginosa; also recorded: C. jeikeium”.
“PF-177 (VTSEPGIAHDIRLLPRAAAFR; Peptide with targeting and/or antimicrobial activity)”: the “Target(s)” value is “M. luteus and MRSA and E. faecalis and C. jeikeium”.
Consider “PF-181 (GIAPRRNEWGAVGGR; Peptide with targeting and/or antimicrobial activity)”, for which the “Target(s)” value was “S. epidermidis and M. luteus and E. coli and MRSA and E. faecalis and C. jeikeium”.
The entry for “PF-182 (LPATRDKTRVPASVAGAP; Peptide with targeting and/or antimicrobial activity)” is “S. epidermidis; also recorded: M. luteus; also recorded: E. coli; also recorded: E. faecalis; also recorded: C. jeikeium”; for “PF-183 (KPGISVENRQ; Peptide with targeting and/or antimicrobial activity)” it is “S. epidermidis and M. luteus and E. coli and C. albicans and MRSA and E. faecalis and C. jeikeium”.
The entry for “PF-184 (LIADRHIRA; Peptide with targeting and/or antimicrobial activity)” is “S. epidermidis and M. luteus and E. coli and P. aeruginosa and C. albicans and MRSA and C. jeikeium”.
The entry for “PF-185 (RPAQARQGPGGLIADRHIRA; Peptide with targeting and/or antimicrobial activity)” is “E. coli; also recorded: P. aeruginosa”; for “PF-187 (EIQKIAKGVSGQVYGPSRQITISKKR; Peptide with targeting and/or antimicrobial activity)” it is “S. epidermidis and M. luteus and E. coli and MRSA”; for “PF-189 (GNLTRSREAARATQ; Peptide with targeting and/or antimicrobial activity)” it is “S. epidermidis and M. luteus and C. albicans and MRSA and E. faecalis and C. jejuni”.
Take “PF-193 (PPHCPPGHAKKGWC; Peptide with targeting and/or antimicrobial activity)”: the “Target(s)” value was “S. epidermidis and M. luteus and E. coli and MRSA and E. faecalis and C. jejuni”.
Turning to “PF-194 (MKGNKLATAHEQPVKNSAPPL; Peptide with targeting and/or antimicrobial activity)”, the “Target(s)” value was “C. jeikeium”.
The entry for “PF-195 (EMAEGSADDRLRKTPRDC; Peptide with targeting and/or antimicrobial activity)” is “S. epidermidis; also recorded: M. luteus; also recorded: E. faecalis; also recorded: C. jeikeium”; for “PF-197 (CNALLRRGHPPSAL; Peptide with targeting and/or antimicrobial activity)” it is “S. epidermidis; also recorded: M. luteus; also recorded: C. albicans; also recorded: E. faecalis; also recorded: C. jejuni”.
The entry for “PF-200 (GIELKSLIMAQIERWRQA; Peptide with targeting and/or antimicrobial activity)” is “S. epidermidis and M. luteus and MRSA and E. faecalis and C. jeikeium”; for “PF-201 (GCRPASLSDADPDGR; Peptide with targeting and/or antimicrobial activity)” it is “S. epidermidis; also recorded: M. luteus; also recorded: E. coli; also recorded: C. albicans; also recorded: E. faecalis; also recorded: C. jeikeium; also recorded: C. jejuni”; for “PF-202 (ALNRASLRLALGE; Peptide with targeting and/or antimicrobial activity)” it is “S. epidermidis and M. luteus and E. coli and MRSA and E. faecalis and C. jeikeium and C. jejuni”.
The entry for “PF-206 (KLRSASKKSLQEKSCGIMPEKPAG; Peptide with targeting and/or antimicrobial activity)” is “M. luteus; also recorded: C. albicans; also recorded: C. jeikeium; also recorded: C. jejuni”; for “PF-207 (AAGCRDLGSLSSLVTNPS; Peptide with targeting and/or antimicrobial activity)” it is “M. luteus; also recorded: C. jeikeium”.
“PF-210 (EREDGCDAMPLP; Peptide with targeting and/or antimicrobial activity)”: the “Target(s)” value was “S. epidermidis and P. aeruginosa and C. albicans and MRSA and E. faecalis and C. jeikeium and C. jejuni”.
The entry for “PF-213 (MTTGVDFIIEKV; Peptide with targeting and/or antimicrobial activity)” is “S. epidermidis”; for “PF-214 (GHLRVCWVFSASLLTPFRSATLI; Peptide with targeting and/or antimicrobial activity)” it is “S. mutans; also recorded: S. epidermidis; also recorded: M. luteus; also recorded: E. coli; also recorded: P. aeruginosa; also recorded: A. baumannii”; for “PF-216 (ESVDKITEALEEDGFPAKVQ; Peptide with targeting and/or antimicrobial activity)” it is “S. mutans; also recorded: E. coli”.
The entry for “PF-217 (DWEFTHKTIPQKK; Peptide with targeting and/or antimicrobial activity)” is “S. mutans”; for “PF-218 (SETPEKPVGTFFYSIYYKIIL; Peptide with targeting and/or antimicrobial activity)” it is “S. epidermidis; also recorded: M. luteus; also recorded: P. aeruginosa; also recorded: A. baumannii”; for “PF-219 (FLALAVIAGLFKVILIYAAPYLK; Peptide with targeting and/or antimicrobial activity)” it is “S. epidermidis; also recorded: M. luteus; also recorded: P. aeruginosa; also recorded: A. baumannii”.
The entry for “PF-221 (VFDNIDINF; Peptide with targeting and/or antimicrobial activity)” is “S. epidermidis; also recorded: M. luteus; also recorded: P. aeruginosa”.
With “PF-223 (VKFCIECQTKLERKRR; Peptide with targeting and/or antimicrobial activity)”, the “Target(s)” value is “S. epidermidis; also recorded: M. luteus; also recorded: A. baumannii”.
The entry for “PF-225 (MNCASPEFKKLMELYK; Peptide with targeting and/or antimicrobial activity)” is “S. epidermidis”; for “PF-228 (NQLGSQAFAQL; Peptide with targeting and/or antimicrobial activity)” it is “S. mutans”; for “PF-229 (DPILIQIGFTRFALRKAEAEKIEIQVEEGVPA; Peptide with targeting and/or antimicrobial activity)” it is “S. epidermidis; also recorded: M. luteus; also recorded: P. aeruginosa; also recorded: A. baumannii”.
Regarding “PF-230 (EDKPTNTIQEIKPVKWQ; Peptide with targeting and/or antimicrobial activity)”, the “Target(s)” value is given as “S. mutans”.
The entry for “PF-231 (AVRDFKKSVREEDEAASLNSPRTIDAQVKTSESTSVKS; Peptide with targeting and/or antimicrobial activity)” is “S. mutans”.
The entry for “PF-232 (FDQLYALEREGKLDELLA; Peptide with targeting and/or antimicrobial activity)” is “S. epidermidis; also recorded: M. luteus”; for “PF-236 (KEIRTATVAELNAKRRLTSAEQALAEVS; Peptide with targeting and/or antimicrobial activity)” it is “S. mutans; also recorded: S. epidermidis; also recorded: E. coli; also recorded: C. albicans; also recorded: S. pneumoniae; also recorded: E. faecalis”.
The entry for “PF-237 (YVKPKVGVHE; Peptide with targeting and/or antimicrobial activity)” is “S. epidermidis”.
For “PF-238 (RNAVVVTEATFPKYEEEITNYLNRRFGEDWSLKLEKCSVA; Peptide with targeting and/or antimicrobial activity)”, the “Target(s)” value was “S. mutans and S. epidermidis and E. coli and P. aeruginosa and C. albicans and MRSA and S. pneumoniae and E. faecalis”.
The entry for “PF-239 (PKHNVVTGVSVDLDYKP; Peptide with targeting and/or antimicrobial activity)” is “S. mutans; also recorded: E. coli”.
On to “PF-240 (RITEVPPDEHSDR; Peptide with targeting and/or antimicrobial activity)”, for which the “Target(s)” value is “S. mutans; also recorded: E. coli”.
The entry for “PF-242 (KLFEDPLIKSKAVENFQTTWHEQCLAKELAKNM; Peptide with targeting and/or antimicrobial activity)” is “S. mutans; also recorded: E. coli”; for “PF-244 (HMRTISYLLAFAKFSLFIPPKQSLKRL; Peptide with targeting and/or antimicrobial activity)” it is “S. epidermidis; also recorded: M. luteus; also recorded: P. aeruginosa; also recorded: A. baumannii”.
The entry for “PF-245 (MNDVKPVVQPKQTLKAFLVQLLSVRAGVYIKQNNQLPKTKG; Peptide with targeting and/or antimicrobial activity)” is “S. epidermidis; also recorded: M. luteus; also recorded: P. aeruginosa; also recorded: A. baumannii”; for “PF-246 (QPDEKAEFFDPSLDKVYRHPTFYHIPDGIEHM; Peptide with targeting and/or antimicrobial activity)” it is “S. mutans”.
